Measurements published in paper PMC9460512, “A conserved sequence motif in the Escherichia coli soluble FAD-containing pyridine nucleotide transhydrogenase is important for reaction efficiency” (The Journal of Biological Chemistry, 2022).
Each block holds one molecule with its values, some of them ahead of it.

Experiments:
[1] = biological target: T1, SthA (UdhA), soluble pyridine nucleotide transhydrogenase (Escherichia coli, UniProt P27306); test: thioNADPH formation rate at […] nm; format: biochemical; details: activator; 1.0 mM NADH, 0.15 mM thioNADP+, 50 mM Tris pH 7.5, 30 °C
[2] = biological target: T1, SthA (UdhA), soluble pyridine nucleotide transhydrogenase; test: absorbance spectrum of purified holoenzyme (A280/[…]); format: binding; details: bound prosthetic group copurified; 20 μM FAD in lysis buffer
[3] = biological target: SthA (UdhA), soluble pyridine nucleotide transhydrogenase (Escherichia coli, UniProt P27306, T50C); test: stopped-flow flavin reduction at […] nm, kobs vs NADH; format: biochemical; details: apparent; reductive half-reaction, anaerobic, 25 °C, no NADP+; 50 mM Tris pH 7.5
[4] = biological target: T1, SthA (UdhA), soluble pyridine nucleotide transhydrogenase; test: as above; format: biochemical; details: apparent; reductive half-reaction, anaerobic, 25 °C, no NADP+; 50 mM Tris pH 7.5
[5] = biological target: SthA (UdhA), soluble pyridine nucleotide transhydrogenase (Escherichia coli, UniProt P27306, C45A); test: as above; format: biochemical; details: apparent; reductive half-reaction, anaerobic, 25 °C, no NADP+; 50 mM Tris pH 7.5
[6] = biological target: T1, SthA (UdhA), soluble pyridine nucleotide transhydrogenase; test: thioNADPH formation at […] nm, substrate-inhibition fit; format: biochemical; details: 50 mM Tris pH 7.5, 30 °C
purified protein [7] = substrate: NC(=O)C1=CN([C@@H]2O[C@H](COP(=O)(O)OP(=O)(O)OC[C@H]3O[C@@H](n4cnc5c(N)ncnc54)[C@H](OP(=O)(O)O)[C@@H]3O)[C@@H](O)[C@H]2O)C=CC1; test: purified protein; format: biochemical, Escherichia coli; details: oxidase (uncoupling) reaction, 0.2 mM O2, no NAD(P)+, 50 mM Tris pH 7.5, 30 °C
purified protein [8] = substrate: NC(=S)c1ccc[n+]([C@@H]2O[C@H](COP(=O)(O)OP(=O)(O)OC[C@H]3O[C@@H](n4cnc5c(N)ncnc54)[C@H](OP(=O)(O)O)[C@@H]3O)[C@@H](O)[C@H]2O)c1; test: purified protein; format: biochemical, Escherichia coli; details: transhydrogenase reaction, 10.0 mM NADH, 50 mM Tris pH 7.5, 30 °C
[9] = biological target: the molecule itself; test: dynamic light scattering; purified SthA (>1 mg/ml) in a microcuvette, DynaPro Nanostar, 20 °C, three independent purification batches; oligomer size from the hydrodynamic radius

Chain of SthA (UdhA), soluble pyridine nucleotide transhydrogenase (Escherichia coli, UniProt P27306, T50C) (P27306 2-466 T50C): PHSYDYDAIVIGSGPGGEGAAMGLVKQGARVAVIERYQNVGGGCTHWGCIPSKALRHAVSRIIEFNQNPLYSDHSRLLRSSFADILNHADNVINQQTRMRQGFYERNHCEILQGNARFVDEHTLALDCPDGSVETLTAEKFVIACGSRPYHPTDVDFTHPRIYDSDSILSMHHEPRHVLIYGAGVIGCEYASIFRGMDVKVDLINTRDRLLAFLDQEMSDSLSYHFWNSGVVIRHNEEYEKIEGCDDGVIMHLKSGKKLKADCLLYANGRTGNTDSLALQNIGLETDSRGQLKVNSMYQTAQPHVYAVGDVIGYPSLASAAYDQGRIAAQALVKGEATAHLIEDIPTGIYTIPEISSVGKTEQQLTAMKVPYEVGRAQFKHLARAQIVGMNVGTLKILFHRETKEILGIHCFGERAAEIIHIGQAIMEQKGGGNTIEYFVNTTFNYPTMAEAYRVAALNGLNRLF
Chain of SthA (UdhA), soluble pyridine nucleotide transhydrogenase (Escherichia coli, UniProt P27306, C45A) (P27306 2-466 C45A): as the sequence (P27306 2-466 T50C) above, with C44A, C49T counted along it

Molecule: Nc1ncnc2c1ncn2[C@@H]1O[C@H](COP(=O)(O)OP(=O)(O)O)[C@@H](O)[C@H]1O [ADP]
- % activity at 5.0 mM [1]: ADP was the best reaction activator, followed by AMP and ATP, respectively.

Molecule: Nc1ncnc2c1ncn2[C@@H]1O[C@H](COP(=O)(O)O)[C@@H](O)[C@H]1O [AMP]
- % activity at 5.0 mM [1]: all three adenine nucleotides increased the rate of thioNADPH formation

Molecule: Nc1ncnc2c1ncn2[C@@H]1O[C@H](COP(=O)(O)OP(=O)(O)OP(=O)(O)O)[C@@H](O)[C@H]1O [ATP]
- % activity at 5.0 mM [1]: all three adenine nucleotides increased the rate of thioNADPH formation

Molecule: Cc1cc2nc3c(=O)[nH]c(=O)nc-3n(C[C@H](O)[C@H](O)[C@H](O)COP(=O)(O)OP(=O)(O)OC[C@H]3O[C@@H](n4cnc5c(N)ncnc54)[C@H](O)[C@@H]3O)c2cc1C [FAD]
- absorbance spectrum of purified holoenzyme (A280/450) [2]: absorbance spectrum of the purified protein indicated the presence of bound oxidized FAD

- Kd [3]: 227 ± 61 µM
- Kd [4]: 88 ± 27 µM
- Kd [5]: 300 ± 100 µM
- KI ([6]; 0.5 mM thioNADP+): 12100 ± 2000 µM
Molecule: NC(=O)C1=CN([C@@H]2O[C@H](COP(=O)(O)OP(=O)(O)OC[C@H]3O[C@@H](n4cnc5c(N)ncnc54)[C@H](O)[C@@H]3O)[C@@H](O)[C@H]2O)C=CC1 [NADH]

- KI ([6]; 10.0 mM NADH): 590 ± 260 µM
Molecule: NC(=S)c1ccc[n+]([C@@H]2O[C@H](COP(=O)(O)OP(=O)(O)OC[C@H]3O[C@@H](n4cnc5c(N)ncnc54)[C@H](OP(=O)(O)O)[C@@H]3O)[C@@H](O)[C@H]2O)c1 [thioNADP+]

B1: SthA (UdhA), soluble pyridine nucleotide transhydrogenase (Escherichia coli K-12) (protein)
chain: PHSYDYDAIVIGSGPGGEGAAMGLVKQGARVAVIERYQNVGGGCTHWGTIPSKALRHAVSRIIEFNQNPLYSDHSRLLRSSFADILNHADNVINQQTRMRQGFYERNHCEILQGNARFVDEHTLALDCPDGSVETLTAEKFVIACGSRPYHPTDVDFTHPRIYDSDSILSMHHEPRHVLIYGAGVIGCEYASIFRGMDVKVDLINTRDRLLAFLDQEMSDSLSYHFWNSGVVIRHNEEYEKIEGCDDGVIMHLKSGKKLKADCLLYANGRTGNTDSLALQNIGLETDSRGQLKVNSMYQTAQPHVYAVGDVIGYPSLASAAYDQGRIAAQALVKGEATAHLIEDIPTGIYTIPEISSVGKTEQQLTAMKVPYEVGRAQFKHLARAQIVGMNVGTLKILFHRETKEILGIHCFGERAAEIIHIGQAIMEQKGGGNTIEYFVNTTFNYPTMAEAYRVAALNGLNRLF
- Km (purified protein [7]): 91.8 ± 30.5 µM
- kcat (purified protein [7]): 0.2 ± 0.03 s⁻¹
- kcat/Km (purified protein [7]): 2200 M⁻¹ s⁻¹
- Km (purified protein [8]): 120 ± 40 µM
- kcat (purified protein [8]): 15.3 ± 3.1 s⁻¹
- kcat/Km (purified protein [8]): 128000 M⁻¹ s⁻¹

B2: soluble pyridine nucleotide transhydrogenase SthA from Escherichia coli K-12 (enzyme, E. coli K-12, UniProt P27306 1-466, looked up)
chain: MPHSYDYDAIVIGSGPGGEGAAMGLVKQGARVAVIERYQNVGGGCTHWGTIPSKALRHAVSRIIEFNQNPLYSDHSRLLRSSFADILNHADNVINQQTRMRQGFYERNHCEILQGNARFVDEHTLALDCPDGSVETLTAEKFVIACGSRPYHPTDVDFTHPRIYDSDSILSMHHEPRHVLIYGAGVIGCEYASIFRGMDVKVDLINTRDRLLAFLDQEMSDSLSYHFWNSGVVIRHNEEYEKIEGCDDGVIMHLKSGKKLKADCLLYANGRTGNTDSLALQNIGLETDSRGQLKVNSMYQTAQPHVYAVGDVIGYPSLASAAYDQGRIAAQALVKGEATAHLIEDIPTGIYTIPEISSVGKTEQQLTAMKVPYEVGRAQFKHLARAQIVGMNVGTLKILFHRETKEILGIHCFGERAAEIIHIGQAIMEQKGGGNTIEYFVNTTFNYPTMAEAYRVAALNGLNRLF
notes: Soluble pyridine nucleotide transhydrogenase SthA (UdhA) of E. coli K-12; protomer with a calculated molar mass of around 54 kDa; No removal of the His tag is described; also called UdhA; soluble transhydrogenase
- stoichiometry N [9]: 8
